# Source: patent US5840684A, “Glycopeptide antibiotic derivatives” (Eli Lilly and Company, priority 1995, dated 1998)
# Legend:
# [1] = test system: Staphylococcus aureus SA1199A; experiment: broth micro-dilution MIC; format: cell-based
# Description: (§1) The MIC's were determined using a standard broth micro-dilution assay.
# [2] = test system: Staphylococcus aureus X400; experiment: broth micro-dilution MIC; format: cell-based
# Description: as §1
# [3] = test system: Staphylococcus aureus X778; experiment: broth micro-dilution MIC; format: cell-based
# Description: as §1
# [4] = test system: Staphylococcus aureus 447; experiment: broth micro-dilution MIC; format: cell-based
# Description: as §1
# [5] = test system: Streptococcus pyogenes C203; experiment: broth micro-dilution MIC; format: cell-based
# Description: as §1
# [6] = test system: Staphylococcus aureus 491; experiment: broth micro-dilution MIC; format: cell-based
# Description: as §1
# [7] = test system: Staphylococcus aureus 446; experiment: broth micro-dilution MIC; format: cell-based
# Description: as §1
# [8] = test system: Staphylococcus aureus 489; experiment: broth micro-dilution MIC; format: cell-based
# Description: as §1
# [9] = test system: Entercoccus faecium 180-1; experiment: broth micro-dilution MIC; format: cell-based
# Description: as §1
# [10] = test system: Streptococcus pneumoniae P1; experiment: broth micro-dilution MIC; format: cell-based
# Description: (§2) The formula I compounds have in vitro and in vivo activity against Gram-positive pathogenic bacteria. The MIC's were determined using a standard broth micro-dilution assay.
# [11] = test system: Staphylococcus epidermidis 270; experiment: broth micro-dilution MIC; format: cell-based
# Description: as §2
# Entercoccus faecium 180 = experiment: broth micro-dilution MIC; format: cell-based; settings: Entercoccus faecium 180
# Description: as §2
# [12] = test system: Staphylococcus haemolyticus 415; experiment: broth micro-dilution MIC; format: cell-based
# Description: as §2
# [13] = test system: Enterococcus gallinarum 245; experiment: broth micro-dilution MIC; format: cell-based; settings: Enterococcus gallinarum 245
# Description: as §2
# [14] = test system: Staphylococcus haemolyticus 105; experiment: broth micro-dilution MIC; format: cell-based
# Description: as §2
# [15] = test system: vancomycin-resistant enterococci; experiment: broth micro-dilution, mean geometric MIC; format: cell-based, Enterococcus faecium and Enterococcus faecalis; settings: enterococci, 24-hour incubation
# Entercoccus faecium 276 = experiment: broth micro-dilution MIC; format: cell-based
# Description: as §1
# Entercoccus faecium 2041 = experiment: broth micro-dilution MIC; format: cell-based; settings: Entercoccus faecium 2041
# Description: as §2
# [16] = test system: Staphylococcus aureus S13E; format: cell-based
# Description: as §1
# [17] = test system: Staphylococcus aureus SA1199B; format: cell-based
# Description: as §1
# [18] = test system: vancomycin-susceptible enterococci; experiment: broth micro-dilution, mean geometric MIC; format: cell-based, Enterococcus faecium and Enterococcus faecalis; settings: enterococci, 24-hour incubation
Structure (SMILES),MIC [1],MIC [2] [µg/mL],MIC [3] [µg/mL],MIC [4],MIC [5] [µg/mL],MIC [6] [µg/mL],MIC [7] [µg/mL],MIC [8],MIC [9],MIC [10] [µg/mL],MIC [11] [µg/mL],MIC (Entercoccus faecium 180) [µg/mL],MIC [12],MIC [13] [µg/mL],MIC [14] [µg/mL],"mean geometric MIC, Vancomycin Resistant Strains [15] [µg/mL]",MIC (Entercoccus faecium 276) [µg/mL],MIC (Entercoccus faecium 2041) [µg/mL],MIC [16] [µg/mL],MIC [17] [µg/mL],also measured
CNC(CC(C)C)C(=O)NC1C(=O)NC(CC(N)=O)C(=O)NC2C(=O)NC3C(=O)NC(C(=O)NC(C(=O)O)c4cc(O)cc(O)c4-c4cc3ccc4O)C(OC3CC(C)(N)C(O)C(C)O3)c3ccc(c(Cl)c3)Oc3cc2cc(c3OC2OC(CO)C(O)C(O)C2OC2CC(C)(NCc3ccc(OCC(O)CO)cc3)C(O)C(C)O2)Oc2ccc(cc2Cl)C1O (centres unmarked) [Compound 177],0.5 µg/mL,≤ 0.06,2,4 µg/mL,16,0.5,0.5,≤ 0.06 µg/mL,≤ 0.06 µg/mL,8,1,4,16 µg/mL,16,4,,,,,,
CNC(CC(C)C)C(=O)NC1C(=O)NC(CC(N)=O)C(=O)NC2C(=O)NC3C(=O)NC(C(=O)NC(C(=O)O)c4cc(O)cc(O)c4-c4cc3ccc4O)C(OC3CC(C)(N)C(O)C(C)O3)c3ccc(cc3)Oc3cc2cc(c3OC2OC(CO)C(O)C(O)C2OC2CC(C)(NCc3ccc(Oc4ccccc4)cc3)C(O)C(C)O2)Oc2ccc(cc2)C1O (centres unmarked) [Compound 184],≤ .06 µg/mL,0.5,0.5,≤ .06 µg/mL,,0.5,2,≤ .06 µg/mL,≤ .06 µg/mL,,4,8,≤ .06 µg/mL,4,0.25,27,0.5,1,1,1,"mean geometric MIC, Vancomycin Sensitive Strains [18]: 0.570 µg/mL"
CNC(CC(C)C)C(=O)NC1C(=O)NC(CC(N)=O)C(=O)NC2C(=O)NC3C(=O)NC(C(=O)NC(C(=O)O)c4cc(O)cc(O)c4-c4cc3ccc4O)C(OC3CC(C)(N)C(O)C(C)O3)c3ccc(c(Cl)c3)Oc3cc2cc(c3OC2OC(CO)C(O)C(O)C2OC2CC(C)(NCC3CCC4CCCC43)C(O)C(C)O2)Oc2ccc(cc2Cl)C1O (centres unmarked) [Compound 190],≤ 0.06 µg/mL,≤ 0.06,0.125,1 µg/mL,≤ 0.06,0.125,,0.125 µg/mL,≤ 0.06 µg/mL,≤ 0.06,2,8,8 µg/mL,8,8,6.7,0.125,≤ 0.06,0.125,0.5,"mean geometric MIC, Vancomycin Sensitive Strains [18]: 0.29 µg/mL"
CCCCCCCC#Cc1ccc(CN[C@@]2(C)C[C@H](O[C@H]3[C@H](Oc4c5cc6cc4Oc4ccc(cc4Cl)[C@@H](O[C@H]4C[C@](C)(N)[C@@H](O)[C@H](C)O4)[C@@H]4NC(=O)[C@H](NC(=O)[C@@H]6NC(=O)[C@H](CC(N)=O)NC(=O)[C@H](NC(=O)[C@@H](CC(C)C)NC)[C@H](O)c6ccc(c(Cl)c6)O5)c5ccc(O)c(c5)-c5c(O)cc(O)cc5[C@@H](C(=O)O)NC4=O)O[C@H](CO)[C@@H](O)[C@@H]3O)O[C@@H](C)[C@@H]2O)cc1 [Compound 232],2 µg/mL,8,8,,≤ 0.06,4,4,8 µg/mL,1 µg/mL,≤ 0.06,8,0.5,32 µg/mL,32,2,0.71,8,2,8,32,"mean geometric MIC, Vancomycin Sensitive Strains [18]: 0.29 µg/mL"
